Source: patent US11753407B2, “Compounds for treating spinal muscular atrophy” (PTC Therapeutics, Inc., priority 2012, dated 2023)

Legend:
[1] = system: Smn protein in SMA patient fibroblast cells (GM03813); test: Smn protein assay in cultured cells (SMN HTRF); assay type: cell-based, human; details: SMA patient fibroblast cells, 48 hours; for EC1.5x for Smn protein expression: 7-point concentration curve, SMN HTRF, concentration producing 1.5 times Smn protein vs DMSO vehicle control; for maximum fold (Fold) increase of Smn protein: 7-point concentration data, fold relative to vehicle control
Summary of the method: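 Fibroblasts, SMA patient; 5,000 cells/well; 7-pt curve, 3.16-fold serial dilution; 48 h, 37 °C, 5% CO2; RIPA lysis 1 h RT; anti-SMN d2 + kryptate overnight RT; HTRF 665/620 nm; fold vs DMSO; EC1.5×, max fold.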

[2] = system: SMN2 minigene mRNA (SMN2-A minigene) in HEK293H cells; test: SMN2 minigene mRNA splicing RT-qPCR assay in cultured cells; assay type: cell-based, human; details: Homo sapiens, HEK293-H; concentration increasing full length SMN2 mRNA 1.5-fold relative to vehicle-treated cells; HEK293H cells with SMN2-A minigene, 24 hours, 7-point concentration data; read-out: EC1.5x for production of full length SMN2 mRNA
Summary of the method: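 Stable SMN2-A minigene HEK293H; cpd 7-pt 3.16-fold series, 200× in DMSO, 24 h, 37 °C, n=2. Lysates → multiplex RT-qPCR (minigene FL + GAPDH), efficiency-corrected ΔΔCt vs vehicle. EC1.5× = 1.5-fold FL mRNA gain.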

SMILES | melting point | EC1.5x for Smn protein expression [1] | maximum fold (Fold) increase of Smn protein [1] | EC (1.5-fold increase) [2]
CCN1CCN(c2ccc3nc(-c4cc5cc(C)nc(C)c5o4)cc(=O)n3c2)CC1 [Compound 601, 2-(5,7-dimethylfuro[2,3-c]pyridin-2-yl)-7-(4-ethylpiperazin-1-yl)-4H-pyrido[1,2-a]pyrimidin-4-one] | 202 to 204 °C | *** (an EC1.5× between >0.3 μM and ≤1 μM is indicated by three stars (***)) | **** (a fold increase between >1.5 and ≤1.65 is indicated by four stars (****)) | < 0.1 µM
Cc1cn2nc(-c3cc(=O)n4cc(N5CCC6C(CCN6C)C5)ccc4n3)cc2c(C)n1 (centres unmarked) [Compound 602, 2-(4,6-dimethylpyrazolo[1,5-a]pyrazin-2-yl)-7-(1-methyloctahydro-5H-pyrrolo[3,2-c]pyridin-5-yl)-4H-pyrido[1,2-a]pyrimidin-4-one] | 210 to 212 °C | **** (an EC1.5x≤0.3 μM is indicated by four stars (****)) | **** (a fold increase between >1.5 and ≤1.65 is indicated by four stars (****)) | < 0.1 µM
CCN1CCC(c2ccc3nc(-c4ccc5c(cnn5C)c4)cc(=O)n3c2)CC1 [Compound 604, 7-(1-ethylpiperidin-4-yl)-2-(1-methyl-1H-indazol-5-yl)-4H-pyrido[1,2-a]pyrimidin-4-one] | 184 to 186 °C | **** (an EC1.5x≤0.3 μM is indicated by four stars (****)) | ***** (a fold increase >1.65 is indicated by five stars (*****)) | 0.3 to 1 µM
Cn1ncc2cc(-c3cc(=O)n4cc(C5CCN(CCO)CC5)ccc4n3)ccc21 [Compound 605, 7-[1-(2-hydroxyethyl)piperidin-4-yl]-2-(1-methyl-1H-indazol-5-yl)-4H-pyrido[1,2-a]pyrimidin-4-one] | 204 to 206 °C | *** (an EC1.5× between >0.3 μM and ≤1 μM is indicated by three stars (***)) | ***** (a fold increase >1.65 is indicated by five stars (*****)) | 0.3 to 1 µM
Cn1cc2cc(-c3cc(=O)n4cc(C5CCNCC5)ccc4n3)ccc2n1 [Compound 606, 2-(2-methyl-2H-indazol-5-yl)-7-(piperidin-4-yl)-4H-pyrido[1,2-a]pyrimidin-4-one] | 194 to 196 °C | ** (an EC1.5× between >1 μM and ≤3 μM is indicated by two stars (**)) | **** (a fold increase between >1.5 and ≤1.65 is indicated by four stars (****)) | < 0.1 µM
Cc1cn2cc(-c3cc(=O)n4cc(C5CCNCC5)ccc4n3)cc(C)c2n1 [Compound 607, 2-(2,8-dimethylimidazo[1,2-a]pyridin-6-yl)-7-(piperidin-4-yl)-4H-pyrido[1,2-a]pyrimidin-4-one] | 282 to 284 °C | **** (an EC1.5x≤0.3 μM is indicated by four stars (****)) | ***** (a fold increase >1.65 is indicated by five stars (*****)) | < 0.1 µM
Cc1cn2nc(-c3cc(=O)n4cc(N5CCC(NCCO)CC5)cc(C)c4n3)cc2c(C)n1 [Compound 609, 2-(4,6-dimethylpyrazolo[1,5-a]pyrazin-2-yl)-7-{4-[(2-hydroxyethyl)amino]piperidin-1-yl}-9-methyl-4H-pyrido[1,2-a]pyrimidin-4-one] | 221 to 232 °C | **** (an EC1.5x≤0.3 μM is indicated by four stars (****)) | ***** (a fold increase >1.65 is indicated by five stars (*****)) | < 0.1 µM
CNC1CCN(c2cc(C)c3nc(-c4cc5c(C)nc(C)cn5n4)cc(=O)n3c2)CC1 [Compound 610, 2-(4,6-dimethylpyrazolo[1,5-a]pyrazin-2-yl)-9-methyl-7-[4-(methylamino)piperidin-1-yl]-4H-pyrido[1,2-a]pyrimidin-4-one] | 218 to 227 °C | **** (an EC1.5x≤0.3 μM is indicated by four stars (****)) | ***** (a fold increase >1.65 is indicated by five stars (*****)) | < 0.1 µM
Cc1cn2nc(-c3cc(=O)n4cc(N5CCC(NC(C)C)CC5)cc(C)c4n3)cc2c(C)n1 [Compound 611, 2-(4,6-dimethylpyrazolo[1,5-a]pyrazin-2-yl)-9-methyl-7-[4-(propan-2-ylamino)piperidin-1-yl]-4H-pyrido[1,2-a]pyrimidin-4-one] | 215 to 225 °C |  | *** (a fold increase between >1.35 and ≤1.5 is indicated by three stars (***)) | 0.3 to 1 µM

Further lines, with some results ahead:

melting point | SMILES | EC1.5x for Smn protein expression [1] | maximum fold (Fold) increase of Smn protein [1] | EC (1.5-fold increase) [2]
202 to 204 °C | CCN1CCC(c2ccc3nc(-c4ccc5nn(C)cc5c4)cc(=O)n3c2)CC1 [Compound 612, 7-(1-ethylpiperidin-4-yl)-2-(2-methyl-2H-indazol-5-yl)-4H-pyrido[1,2-a]pyrimidin-4-one] | **** (an EC1.5x≤0.3 μM is indicated by four stars (****)) | ***** (a fold increase >1.65 is indicated by five stars (*****)) | < 0.1 µM
170 to 172 °C | Cn1cc2cc(-c3cc(=O)n4cc(C5CCN(CCO)CC5)ccc4n3)ccc2n1 [Compound 613, 7-[1-(2-hydroxyethyl)piperidin-4-yl]-2-(2-methyl-2H-indazol-5-yl)-4H-pyrido[1,2-a]pyrimidin-4-one] | **** (an EC1.5x≤0.3 μM is indicated by four stars (****)) | ***** (a fold increase >1.65 is indicated by five stars (*****)) | < 0.1 µM
200 to 202 °C | Cc1cn2cc(-c3cc(=O)n4cc(C5CCN(C)CC5)ccc4n3)cc(C)c2n1 [Compound 614, 2-(2,8-dimethylimidazo[1,2-a]pyridin-6-yl)-7-(1-methylpiperidin-4-yl)-4H-pyrido[1,2-a]pyrimidin-4-one] | **** (an EC1.5x≤0.3 μM is indicated by four stars (****)) | ***** (a fold increase >1.65 is indicated by five stars (*****)) | < 0.1 µM
202 to 204 °C | CCN1CCC(c2ccc3nc(-c4cc(C)c5nc(C)cn5c4)cc(=O)n3c2)CC1 [Compound 615, 2-(2,8-dimethylimidazo[1,2-a]pyridin-6-yl)-7-(1-ethylpiperidin-4-yl)-4H-pyrido[1,2-a]pyrimidin-4-one] | **** (an EC1.5x≤0.3 μM is indicated by four stars (****)) | **** (a fold increase between >1.5 and ≤1.65 is indicated by four stars (****)) | < 0.1 µM
242 to 244 °C | Cc1cn2cc(-c3cc(=O)n4cc(C5CCN(C(C)C)CC5)ccc4n3)cc(C)c2n1 [Compound 616, 2-(2,8-dimethylimidazo[1,2-a]pyridin-6-yl)-7-[1-(propan-2-yl)piperidin-4-yl]-4H-pyrido[1,2-a]pyrimidin-4-one] | **** (an EC1.5x≤0.3 μM is indicated by four stars (****)) | ***** (a fold increase >1.65 is indicated by five stars (*****)) | < 0.1 µM
243 to 245 °C | CCCN1CCN(c2ccc3nc(-c4cc5c(CC)nc(C)cn5n4)cc(=O)n3c2)CC1 [Compound 618, 2-(4-ethyl-6-methylpyrazolo[1,5-a]pyrazin-2-yl)-7-(4-propylpiperazin-1-yl)-4H-pyrido[1,2-a]pyrimidin-4-one] | **** (an EC1.5x≤0.3 μM is indicated by four stars (****)) | ***** (a fold increase >1.65 is indicated by five stars (*****)) | < 0.1 µM
255 to 258 °C | CCc1nc(C)cn2nc(-c3cc(=O)n4cc(N5CCN(C(C)C)CC5)ccc4n3)cc12 [Compound 619, 2-(4-ethyl-6-methylpyrazolo[1,5-a]pyrazin-2-yl)-7-[4-(propan-2-yl)piperazin-1-yl]-4H-pyrido[1,2-a]pyrimidin-4-one] | *** (an EC1.5× between >0.3 μM and ≤1 μM is indicated by three stars (***)) | ***** (a fold increase >1.65 is indicated by five stars (*****)) | 0.1 to 0.3 µM
258 to 260 °C | CCc1nc(C)cn2nc(-c3cc(=O)n4cc(N5CCN(C6CC6)CC5)ccc4n3)cc12 [Compound 620, 7-(4-cyclopropylpiperazin-1-yl)-2-(4-ethyl-6-methylpyrazolo[1,5-a]pyrazin-2-yl)-4H-pyrido[1,2-a]pyrimidin-4-one] | ** (an EC1.5× between >1 μM and ≤3 μM is indicated by two stars (**)) | *** (a fold increase between >1.35 and ≤1.5 is indicated by three stars (***)) | 0.3 to 1 µM
275 to 278 °C | CCc1nc(C)cn2nc(-c3cc(=O)n4cc(N5CCN(C6CCC6)CC5)ccc4n3)cc12 [Compound 621, 7-(4-cyclobutylpiperazin-1-yl)-2-(4-ethyl-6-methylpyrazolo[1,5-a]pyrazin-2-yl)-4H-pyrido[1,2-a]pyrimidin-4-one] | **** (an EC1.5x≤0.3 μM is indicated by four stars (****)) | ***** (a fold increase >1.65 is indicated by five stars (*****)) | 0.3 to 1 µM
